Series [1] has as its target T1, human adrenaline α1A receptor (Homo sapiens, UniProt P35348).
T1 construct: expressed in transfected cells; membrane fraction
T1 sequence (P35348 1-466): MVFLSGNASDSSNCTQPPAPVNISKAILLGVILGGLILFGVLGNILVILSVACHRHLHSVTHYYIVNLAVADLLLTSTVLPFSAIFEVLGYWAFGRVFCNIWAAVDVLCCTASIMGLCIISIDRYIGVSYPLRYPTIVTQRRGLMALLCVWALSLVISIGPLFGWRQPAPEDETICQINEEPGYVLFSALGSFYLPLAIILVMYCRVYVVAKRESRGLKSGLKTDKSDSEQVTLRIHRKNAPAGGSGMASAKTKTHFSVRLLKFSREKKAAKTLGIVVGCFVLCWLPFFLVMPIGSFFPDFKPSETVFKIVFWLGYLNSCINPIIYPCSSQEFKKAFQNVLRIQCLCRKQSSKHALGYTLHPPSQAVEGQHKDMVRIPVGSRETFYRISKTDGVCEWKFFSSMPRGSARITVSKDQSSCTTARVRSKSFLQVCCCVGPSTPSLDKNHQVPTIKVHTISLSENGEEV
As to the kind of experiment: Measurement of α1A receptor binding inhibitory activity ([3H]-Prazosin binding to CHO-K1 membrane fraction). As to conditions: concentration reducing [3H]-Prazosin (2.5 nM) binding to the membrane fraction to 50%. As for the experimental part: b) Measurement of α1A Receptor Binding Inhibitory Activity
The following gene manipulation method was carried out according to the method described in a textbook (Miniatis et al., Molecular Cloning, Cold Spring Harbor Laboratory, 1989) or the method described in protocol attached to a reagent.
(i) Preparation of Expression Plasmid for Human Adrenaline α1A Receptor
An adrenaline α1A receptor gene was cloned from a human liver cDNA by a PCR method. A PCR reaction was performed with Gene Amp PCR System 9700 (Applied Biosystems) using 200 ng of a human liver cDNA library (TAKARA SHUZO Co., Ltd.) as a template and using TaKaRa Pyrobest DNA Polymerase (TAKARA SHUZO CO., Ltd) and adding each 50 pmol of a primer set 5′-[…]-3′ [SEQ ID No.: 1] and 5′-[…]-3[SEQ ID No.: 2] prepared making reference to a nucleotide sequence of an adrenaline α1A receptor gene which was reported by Hirasawa A. et al. (Biochem. Biophys. Res. Commun., 195, 902–909(1993)) (reaction condition: 45 cycles of 15 seconds at 94° C., and 3 minutes 30 seconds at 68° C.).
The obtained PCR fragment was digested with restriction enzymes Eco RI (TAKARA SHUZO Co. Ltd.) and Sal I. (TAKARA SHUZO Co. Ltd.), and agarose gel electrophoresis was performed to recover DNA fragments. The DNA fragments were mixed with an animal cell expression plasmid pMSR αneo (Administration No. A99–0013) which had been digested with Eco RI and Sal I, ligated with DNA Ligation Kit Ver. 2 (TAKARA SHUZO Co. Ltd.), and a competent cell of Esherichia coli JM109 was transformed to obtain a plasmid pMSR αneoA dreα1A.
(ii) Introduction of Plasmid for Expression of Human Adrenaline α1A Receptor into CHO-K1 Cell and Preparation of Membrane Fraction
CHO-K1 cells which had been subcultured in a 150 cm^2 culturing flask (Corning Coaster) using Ham F12 medium (Invitrogen) containing 10% fetal bovine serum (TRACE SCIENTIFIC) was peeled with 0.5 g/L trypsin-0.2 g/L EDTA(Invitrogen), cells were washed with D-PBS(−) (Invitrogen), centrifuged (1000 rpm, 5 min.), and suspended in D-PBS(−). […]

The test system of another series is Hartley male guinea pigs. Nature of the series: Effect on blood pressure in anesthetized guinea pigs. Format: in vivo, guinea pig. As to conditions: tamsulosin 0.01 mg/kg, Example 20 0.1 mg/kg. The method, then: Hartley male guinea pigs (Slc) weighing 300 to 350 g was anesthetized with urethane (1.2 g/kg), and retained, a cervical region was incised to expose a left common carotid artery. A polyethylene tube filled with physiological saline containing heparin (10 U.I./ml) was inserted into an artery, and blood pressure was measured with a pressure transducer. A cannulae for administering test compound was inserted into a vein at an end of left hind leg, and a test compound dissolved in distilled water was administered therethrough at 0.5 mL/kg. The blood pressure was recorded at 20 Hz using an analogue data inputting apparatus (MP-100, BIOPAC Systems), and analyzed by analyzing software (AcqKnowledge 3.5.3, BIOPAC Systems). Example compound and tamsulosin were studied for a dose at which effects were recognized in the aforementioned test a (Pressure Flow Study), and an average blood pressure just before administration of test compound and an average blood pressure 15 minutes after administration were measured. Data were statistically treated by Paired t-test.

The structures appear in SMILES notation.

A word on the IC50: it is the concentration that inhibits the measured activity by half. The low end stands for greater potency in that assay, the high end for weaker potency in that assay. `COc1ccccc1CCNCCCCCC(=O)c1cc2c3c(c1)CCN3C(=O)CC2.Cl` [Example 20, 8-(6-[[2-(2-Methoxyphenyl)ethyl]amino]hexanoyl]-1,2,5,6-tetrahydro-4H-pyrrolo[3,2,1-ij]quinolin-4-one hydrochloride] registered an IC50 in series [1] of 165 nM. The “Blood pressure, after administration” value in the series with Hartley male guinea pigs (average blood pressure 15 minutes after i.v. administration) is on record as 54.6 ± 2.8 mmHg. In addition, the “Blood pressure, before administration” value with Hartley male guinea pigs (average blood pressure just before i.v. administration) worked out at 53.5 ± 3.6 mmHg.

The record behind these values is patent US7132547B2, “Preventives/remedies for urinary disturbance” (priority 2001, dated 2006).
